# From PMC6030209, “Structure-Activity Investigations and Optimisations of Non-metabolite Agonists for the Succinate Receptor 1” (Scientific Reports, 2018)
# Read-outs that look alike come from different tables or passages of the source.
# How the values were obtained:
# mSUCNR1 = target: T1, mSUCNR1 (Mus musculus, UniProt Q99MT6); test: IP3 turnover assay in mSUCNR1 transfected HEK-293 cells; format: cell-based; details: for mSUCNR1 efficacy, %: efficacy relative to succinate (100%), HEK cells (N = 3)
# T1 construct: FLAG (own knowledge: pCMV-Tag 2B is an N-terminal FLAG vector); host or cells: HEK-293, transient transfection with Lipofectamine-2000
# T1 sequence (Q99MT6 1-317): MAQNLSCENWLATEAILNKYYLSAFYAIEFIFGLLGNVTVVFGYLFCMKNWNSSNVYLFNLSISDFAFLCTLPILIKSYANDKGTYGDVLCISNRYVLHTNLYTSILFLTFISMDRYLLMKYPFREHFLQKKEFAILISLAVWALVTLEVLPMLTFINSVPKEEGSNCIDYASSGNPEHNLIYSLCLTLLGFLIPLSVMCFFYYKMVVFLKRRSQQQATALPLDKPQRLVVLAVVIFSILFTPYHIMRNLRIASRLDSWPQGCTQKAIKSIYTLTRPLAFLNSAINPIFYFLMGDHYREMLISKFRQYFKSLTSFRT
# Description: (§1) Receptor constructs for mSUCNR1 and hSUCNR1 were bought from Origene and cloned into the eukaryotic expression vector pCMV-Tag(2B) (Stratagene).
# (§2) Transient transfection of the HEK-293 cells was done with Lipofectamine-2000 according to manufacturer’s protocol. Cells were supplemented with fresh medium after 5 h.
# (§3) 96-well plates were coated with poly-D-lysine and HEK-293 cells were plated (35.000 cells/well). Cells were transfected for 5 h the following day and subsequently incubated O/N with 0.5 μCi/mL myo[3H]inositol (Perkin Elmer) in 100 μL growth medium. On day 3 cells were washed with 200 µL HBSS/well (Gibco, Life Technologies) followed by a pre-incubation (30 min, 37 °C) with 100 µL HBSS supplemented with 10 mM LiCl. Cells were stimulated with ligand (120 min, 37 °C) and lysed with 50 µL 10 mM formic acid (30 min on ice). In a white 96 well plate 20 µL cell extracts and 80 µL 1:8 diluted YSi scintillation beads (Perkin Elmer) were mixed. The plate was spun down, and a Packard Top Count NXT counter recorded light emission (scintillation) after an 8 h delay.
# physchem = format: physicochemical; details: pH 7.4, aqueous buffer, kinetic from dmso stock, 10 mM PBS7.4, 25 °C
# Description: Duplicates of a 200 μM solution of the dicarboxylic acids were prepared from 0.01 M PBS7.4 and a 10 mM stock solution in DMSO. The samples were incubated in an Eppendorf® Thermomixer (25 °C, 800 rpm) for 24 h. Afterwards, the samples were centrifuged for 5 min at 11,000 rpm and the supernatant was filtered (0.45 μm PTFE membrane) before analysis by HPLC. The solubility was calculated based on a concentration-absorption curve.
# [1] = format: physicochemical; details: after 70 hours in 10 mM PBS7.4, 37 °C
# Description: Triplicates of a 50 μM solution of the test compounds were prepared from 0.01 M PBS7.4 and a 10 mM stock solution in DMSO. The samples were incubated in an Eppendorf® Thermomixer (37 °C, 650 rpm). The samples were briefly vortexed and 50 μL aliquots were withdrawn at the time points 0 h, 24 h, 48 h etc. and analysed immediately on UPLC. The chemical stability in PBS7.4 was determined at every time point in percentage relative to the 0 h time point.
# [2] = format: in vitro ADME; details: 2 hours, 37 °C
# Description: FaSSIF, FeSSGF and FaSSGF were prepared in accordance to the manufacturers procedure, Biorelevant.com. Triplicates of a 50 μM solution of the test compounds were prepared from a 10 mM stock solution in DMSO diluted with FaSSGF/FaSSIF/FeSSIF. The samples were incubated in an Eppendorf® Thermomixer (37 °C, 650 rpm). Samples were withdrawn at 0 min and 120 min, centrifuged (10 min at 10,000 rpm) and the supernatant analysed by HPLC/UPLC. The stability was calculated based on peak area of a 0 point sample.
# [3] = format: in vitro ADME, mouse; details: 1 hour, 1 μM, 0.5 mg/mL microsomes
# Description: Microsomal stability was studied in mouse liver microsomes (0.5 mg/mL) at a final test compound concentration of 1 μM and performed in triplicates in accordance to the published protocol. In short: Prewarmed (37 °C) 0.1 M PBS7.4, 10 mM NADPH in PBS7.4 and test compound (1 mM in DMSO) were added to an Eppendorf® Tube. The samples were incubated for 5 min at 37 °C before addition of newly thawned microsomes. The samples were mixed by gentle vortexing and incubated for 1 h at 37 °C, 300 rpm in an Eppendorf® Thermomixer. Samples were quenched by addition of ice-cold MeOH/MeCN (1:1) and centrifuged for 5 min at 10,000 g. The supernatant was transferred to HPLC vials and stored in the freezer until analysis by HPLC/UPLC. The metabolic stability was calculated based on a 0 min sample. All compounds were analysed in triplicates.
# SUCNR1 = test: Active/inactive grouping by EC50 threshold (ALiBERO training set, Table S1); format: cell-based; details: active (1) / inactive (0), EC50 threshold of 10 µM
# Excerpt: In brief, starting from the homology model supported by mutagenesis data[4], ALiBERO introduced receptor flexibility via Normal Mode Analysis and Monte Carlo sampling, to generate a small subset of receptor models (pockets). […] For a list of all compounds used in the optimisation protocol, see Table S1. Receptor structures were then chosen based on their ability to discriminate actives from inactives in a retrospective virtual screening using the docking protocol and scoring function in ICM (Molsoft L.L.C., San Diego, CA, USA)[20], as measured by the normalised square root area under the curve (NSQ_AUC). […] The ALiBERO-optimised receptor ensemble was subsequently validated in a virtual ligand screening using an external test set with a higher active:decoy ratio (~1:50).
# ALiBERO is an iterative sampling-selection protocol for receptor optimisation that relies on the use of ligand information for selecting the best-performing receptor conformations. Homology models of the mouse SUCNR1 receptor were constructed according to Trauelsen et al.[4] and loaded into ICM (Molsoft L.L.C., San Diego, CA, USA). The structure was converted into an ICM object, thereby assigning protein atom types, optimising hydrogens and His, Pro, Asn, […] and Cys side-chain conformations. […] For a list of all compounds used in the optimisation protocol, see Table S1. ALiBERO was performed using the prepared receptor structure and ligand training set as input. Binding site residues were manually selected based on proximity to the position of MRS2500 in the superimposed structure of the P2Y1 receptor (PDB 4XNW). 100 elastic network normal mode analysis derived conformers were built in order to recreate backbone and side-chain flexibility (T = 300 K). Next, a flexible-ligand static-receptor small-scale virtual screening was performed on each of the receptor conformers, from which several pockets were selected for the following generation. The ligand and decoy molecules were docked into mSUCNR1, represented as pre-calculated potential grids and then sorted according to their ICM VLS scores. The maximum number of complementary pockets for each generation was set to 5 with a maximum of 10 generations. Receptor models were selected based on their combined screening performance, as determined by the normalised square root area under the curve, NSQ_AUC. After each round of virtual screening, an all-atom Monte Carlo side-chain refinement was performed to account for induced-by-ligand changes. NSQ_AUC values were calculated according to Katritch et al.[16].
# hSUCNR1 = target: T2, hSUCNR1 (Homo sapiens, UniProt Q9BXA5); test: IP3 turnover assay in hSUCNR1 transfected HEK-293 cells; format: cell-based; details: for hSUCNR1 efficacy, %: efficacy relative to succinate (100%), HEK cells (N = 3)
# T2 construct: FLAG (own knowledge: pCMV-Tag 2B is an N-terminal FLAG vector); host or cells: HEK-293, transient transfection with Lipofectamine-2000
# T2 sequence (Q9BXA5 1-334): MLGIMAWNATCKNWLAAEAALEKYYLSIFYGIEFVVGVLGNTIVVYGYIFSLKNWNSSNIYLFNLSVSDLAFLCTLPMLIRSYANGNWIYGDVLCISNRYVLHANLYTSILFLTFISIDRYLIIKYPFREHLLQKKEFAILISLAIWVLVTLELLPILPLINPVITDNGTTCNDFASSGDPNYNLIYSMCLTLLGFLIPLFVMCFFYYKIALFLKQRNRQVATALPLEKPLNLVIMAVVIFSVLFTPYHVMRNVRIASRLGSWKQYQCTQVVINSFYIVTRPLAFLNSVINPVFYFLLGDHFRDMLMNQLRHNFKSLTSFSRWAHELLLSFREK
# Description: as §1, §2, §3
# [4] = dose-response curves of induction of IP3 turnover in SUCNR1 transfected HEK cells (N = 3), read-out: hSUCNR1 pEC50 (converted)
# [5] = dose-response curves of induction of IP3 turnover in SUCNR1 transfected HEK cells (N = 3), read-out: mSUCNR1 pEC50 (converted)
# [6] = @10^−4M, IP3 turnover, relative to succinate (100%)
EC50 (mSUCNR1),EC50 (hSUCNR1),SMILES,"mSUCNR1 efficacy, % (mSUCNR1; IP3 turnover)",Active (SUCNR1),"hSUCNR1 efficacy, % (hSUCNR1; IP3 turnover)",EC50 (hSUCNR1; [4]),EC50 (mSUCNR1; [5]),also measured
0.0513 µM,0.145 µM,"CC(C)Oc1ccc(-c2ccc(C(=O)N[C@@H](CC(=O)O)C(=O)O)o2)cc1 [Compound 22, (5-(4-Isopropoxyphenyl)furan-2-carbonyl)-L-aspartic acid]",75.6 ± 1.7%,1 (active (1)),69.6 ± 4.3%,,,
0.107 µM,0.537 µM,"CC1(COc2ccc(-c3ccc(C(=O)N[C@@H](CC(=O)O)C(=O)O)o3)cc2)COC1 [Compound 23, (5-(4-((3-Methyloxetan-3-yl)methoxy)phenyl)furan-2-carbonyl)-L-aspartic acid]",82.4 ± 1.9%,1 (active (1)),76.5 ± 3.1%,,,"reduction of potency (mSUCNR1; relative to the 4-methoxy compound 17, orthologue not stated): > 2 fold"
0.0468 µM,0.794 µM,"CS(=O)(=O)CCCOc1ccc(-c2ccc(C(=O)N[C@@H](CC(=O)O)C(=O)O)o2)cc1 [Compound 24, (5-(4-(3-(Methylsulfonyl)propoxy)phenyl)furan-2-carbonyl)-L-aspartic acid]",74.6 ± 2.1%,1 (active (1)),63.9 ± 2.4%,,,
,,"O=C(O)C[C@H](NC(=O)c1cccc(-c2ccc(F)cc2)c1)C(=O)O [Compound 25, (4′-Fluoro-[1,1′-biphenyl]-3-carbonyl)-L-aspartic acid]",58.0 ± 4.5%,1 (active (1)),49.7 ± 3.9%,1.23 µM,3.98 µM,decrease in potency on the mouse orthologue (mSUCNR1; relative to 3): 10 fold
,,"O=C(O)C[C@H](NC(=O)c1ccc(-c2ccc(F)cc2)cc1)C(=O)O [Compound 26, (4′-Fluoro-[1,1′-biphenyl]-4-carbonyl)-L-aspartic acid]",,0 (inactive (0)),,,,hSUCNR1 % @10^−4M (hSUCNR1; [6]): 4% @10^−4M; mSUCNR1 % @10^−4M (mSUCNR1; [6]): 7% @10^−4M
,,"O=C(O)C[C@H](NC(=O)c1cccc(-c2ccc(F)cc2)n1)C(=O)O [Compound 27, (6-(4-Fluorophenyl)picolinoyl)-L-aspartic acid]",89.3 ± 6.1%,1 (active (1)),78.2 ± 8.0%,0.933 µM,0.794 µM,
,,"COc1ccc(-c2cccc(C(=O)N[C@@H](CC(=O)O)C(=O)O)c2)cc1 [Compound 28, (4′-Methoxy-[1,1′-biphenyl]-3-carbonyl)-L-aspartic acid]",64.0 ± 2.5%,1 (active (1)),58.0 ± 2.7%,0.162 µM,1.2 µM,
,,"COc1ccc(-c2cccc(C(=O)N[C@@H](CC(=O)O)C(=O)O)n2)cc1 [Compound 29, (6-(4-Methoxyphenyl)picolinoyl)-L-aspartic acid]",71.2 ± 3.2%,1 (active (1)),52.6 ± 3.9%,0.141 µM,0.182 µM,
,,"O=C(O)C[C@H](NC(=O)c1cccc(-c2ccc(OC(F)(F)F)cc2)c1)C(=O)O [Compound 30, (4′-(Trifluoromethoxy)-[1,1′-biphenyl]-3-carbonyl)-L-aspartic acid]",45.3 ± 3.4%,1 (active (1)),49.2 ± 2.7%,0.0589 µM,1.45 µM,

SMILES,EC50 (mSUCNR1),EC50 (hSUCNR1),"mSUCNR1 efficacy, % (mSUCNR1; IP3 turnover)",Active (SUCNR1),"hSUCNR1 efficacy, % (hSUCNR1; IP3 turnover)",EC50 (hSUCNR1; [4]),EC50 (mSUCNR1; [5]),also measured
"CCOc1ccc(-c2ccc(C(=O)N[C@@H](CC(=O)O)C(=O)O)o2)cc1 [Compound 21, (5-(4-Ethoxyphenyl)furan-2-carbonyl)-L-aspartic acid]",0.0363 µM,,70.2 ± 2.0%,1 (active (1)),,,,solubility kinetic at 24 h (physchem): > 200 µM; chemical stability [1]: > 98%; stability in FaSSGF ([2]; simulated gastrointestinal fluid FaSSGF): stable; stability in FaSSIF ([2]; simulated gastrointestinal fluid FaSSIF): stable; stability in FeSSIF ([2]; simulated gastrointestinal fluid FeSSIF): stable; stability in mouse liver microsomes [3]: stable
